These results are taken from patent US12371454B2, “Cyclic peptide compound having Kras inhibitory action” (priority 2019, dated 2025).

The structures appear in SMILES notation. Starred links: 1 amine or outer side, 2 acyl side, 3 side chain; linkers in the order of their positions; H or OH if unused. Positions of bridges follow the written chain, without caps; N, C: chain ends. Non-standard residues stand in square brackets, D forms with d. Residues, ends and D or L forms follow the SMILES beside them. *: point of attachment. hPhe(3,5-F2-4-CF3) = N[C@@H](CCc1cc(F)c(C(F)(F)F)c(F)c1)C(=O)O; hPhe(3-Cl-4-CF3) = N[C@@H](CCc1ccc(C(F)(F)F)c(Cl)c1)C(=O)O; NMePhe(4-CF3) = CN[C@@H](Cc1ccc(C(F)(F)F)cc1)C(=O)O; NMePhe(3-OMe) = CN[C@@H](Cc1cccc(OC)c1)C(=O)O; NMePhe(4-CN) = CN[C@@H](Cc1ccc(C#N)cc1)C(=O)O; NMePhe(4-Br) = CN[C@@H](Cc1ccc(Br)cc1)C(=O)O; NMePhe(4-Me) = CN[C@@H](Cc1ccc(C)cc1)C(=O)O; NMePhe(3-I) = CN[C@@H](Cc1cccc(I)c1)C(=O)O; NMePhe(4-F) = CN[C@@H](Cc1ccc(F)cc1)C(=O)O; NMePhe(4-I) = CN[C@@H](Cc1ccc(I)cc1)C(=O)O; NMeNva(5,5-F2) = CN[C@@H](CCC(F)F)C(=O)O; dβ3hPip = O=C(C[C@H]1CCCCN1[*:1])[*:2]; NMe4Pal = CN[C@@H](Cc1ccncc1)C(=O)O; NMeY = CN[C@@H](Cc1ccc(O)cc1)C(=O)O; NMeCha = CN[C@@H](CC1CCCCC1)C(=O)O; NMeChg = CN[C@H](C(=O)O)C1CCCCC1; NMeI = CC[C@H](C)[C@H](NC)C(=O)O; d(β3hL) = CC(C)C[C@@H](N)CC(=O)O; dNMeF = CN[C@H](Cc1ccccc1)C(=O)O; NMeD = CN[C@@H](CC(=O)O)C(=O)O; NMeL = CN[C@@H](CC(C)C)C(=O)O; NMeA = CN[C@@H](C)C(=O)O; Piperidide = C1CCN(*)CC1; Pyrrolidide = C1CCN(*)C1; Ac5c = NC1(C(=O)O)CCCC1; Aze = O=C(O)[C@@H]1CCN1; Ac4c = NC1(C(=O)O)CCC1; CF3 = FC(F)(F)*; Sar = CNCC(=O)O

The target of this experiment is T1, Kras and SOS1 (biotin-tagged human Kras loaded with GDP, His-tagged human SOS1) (Homo sapiens, UniProt P01116, G12D).
T1 construct: made in house; host or cells: E. coli (stated for Kras only)
T1 sequence (P01116 1-188 isoform P01116-2 G12D): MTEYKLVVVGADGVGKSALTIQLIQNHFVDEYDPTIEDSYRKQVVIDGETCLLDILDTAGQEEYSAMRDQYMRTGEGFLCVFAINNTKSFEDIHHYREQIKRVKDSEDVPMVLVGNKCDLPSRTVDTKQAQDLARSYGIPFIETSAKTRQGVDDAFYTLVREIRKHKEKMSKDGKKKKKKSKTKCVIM
In words: Protein-protein interaction inhibition between Kras and SOS1 (KrasGl2D-SOS PPI) using AlphaScreen. The following applies: AlphaScreen; biotin-tagged human Kras loaded with GDP, His-tagged human SOS1; read-out: KRAS G12D-SOS PPI IC50. Type of experiment: binding. In short, it runs like this:
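AlphaScreen format: Ni donor beads capture His-SOS1, streptavidin acceptor beads capture biotinylated Kras (E. coli-expressed, GDP-loaded post-purification). Excite 680 nm, read 520-620 nm.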
Broadly, the IC50 is the concentration needed to halve the response being measured. Take `CC[C@H](C)[C@@H]1NC(=O)[C@H](CC(C)C)N(C)C(=O)C[C@@H](C(=O)N(C)C)N(C)C(=O)[C@H]([C@@H](C)CC)N(C)C(=O)C2(CCCC2)NC(=O)[C@H](Cc2ccc(I)cc2)N(C)C(=O)[C@H](CCc2ccc(C(F)(F)F)c(Cl)c2)NC(=O)CN(C)C(=O)[C@H](Cc2ccc(C)cc2)N(C)C(=O)[C@@H]2CCN2C(=O)[C@H](C)N(C)C1=O` [Compound 1888] ([NMeL]I[NMeA][Aze][NMePhe(4-Me)][Sar][hPhe(3-Cl-4-CF3)][NMePhe(4-I)][Ac5c][NMeI][NMeD]-NMe2; lactam N-11): the IC50 was determined as 53 nM. The value for `CC[C@H](C)[C@@H]1NC(=O)[C@H](C)N(C)C(=O)C[C@@H](C(=O)N(C)C)N(C)C(=O)[C@H]([C@@H](C)CC)N(C)C(=O)C2(CCCC2)NC(=O)[C@@H](Cc2ccccc2)N(C)C(=O)[C@H](CCc2ccc(C(F)(F)F)c(Cl)c2)NC(=O)CN(C)C(=O)[C@H](Cc2ccc(C)cc2)N(C)C(=O)[C@@H]2CCN2C(=O)[C@H](C)N(C)C1=O` [Compound 1889] ([NMeA]I[NMeA][Aze][NMePhe(4-Me)][Sar][hPhe(3-Cl-4-CF3)][dNMeF][Ac5c][NMeI][NMeD]-NMe2; lactam N-11) was 98 nM; that for `CC[C@H](C)[C@@H]1NC(=O)[C@H](C)N(C)C(=O)C[C@@H](C(=O)N(C)C)N(C)C(=O)[C@H]([C@@H](C)CC)N(C)C(=O)C2(CCCC2)NC(=O)[C@H](Cc2ccc(Br)cc2)N(C)C(=O)[C@H](CCc2ccc(C(F)(F)F)c(Cl)c2)NC(=O)CN(C)C(=O)[C@H](Cc2ccc(C)cc2)N(C)C(=O)[C@@H]2CCN2C(=O)[C@H](C)N(C)C1=O` [Compound 1893] ([NMeA]I[NMeA][Aze][NMePhe(4-Me)][Sar][hPhe(3-Cl-4-CF3)][NMePhe(4-Br)][Ac5c][NMeI][NMeD]-NMe2; lactam N-11) was 14 nM; that for `CC[C@H](C)[C@@H]1NC(=O)[C@H](CC(C)C)N(C)C(=O)C[C@@H](C(=O)N2CCCC2)N(C)C(=O)[C@H](C2CCCCC2)N(C)C(=O)C2(CCC2)NC(=O)[C@@H]2CCCN2C(=O)[C@H](CCc2ccc(C(F)(F)F)c(Cl)c2)NC(=O)CN(C)C(=O)[C@H](CC2CCCCC2)N(C)C(=O)CN(C)C(=O)CN(C)C1=O` [Compound 1894] ([NMeL]I[Sar][Sar][NMeCha][Sar][hPhe(3-Cl-4-CF3)]P[Ac4c][NMeChg][NMeD]-Pyrrolidide; lactam N-11) was 0.55 nM. The value for `CC[C@H](C)[C@@H]1NC(=O)[C@H](CC(C)C)N(C)C(=O)C[C@@H](C(=O)N2CCCCC2)N(C)C(=O)[C@H]([C@@H](C)CC)N(C)C(=O)C2(CCCC2)NC(=O)[C@@H](Cc2ccccc2)N(C)C(=O)[C@H](CCc2cc(F)c(C(F)(F)F)c(F)c2)NC(=O)CN(C)C(=O)[C@H](Cc2ccc(C)cc2)N(C)C(=O)[C@@H]2CCN2C(=O)[C@H](C)N(C)C1=O` [Compound 1895] ([NMeL]I[NMeA][Aze][NMePhe(4-Me)][Sar][hPhe(3,5-F2-4-CF3)][dNMeF][Ac5c][NMeI][NMeD]-Piperidide; lactam N-11) was 360 nM. To `CC[C@H](C)[C@@H]1NC(=O)[C@H](CC(C)C)N(C)C(=O)C[C@@H](C(=O)N(C)C)N(C)C(=O)[C@H]([C@@H](C)CC)N(C)C(=O)[C@H](C(C)C)NC(=O)[C@H](Cc2ccncc2)N(C)C(=O)[C@H](CCc2ccc(C(F)(F)F)c(Cl)c2)NC(=O)CN(C)C(=O)[C@H](Cc2ccc(C)cc2)N(C)C(=O)[C@@H]2CCN2C(=O)[C@H](C)N(C)C1=O` [Compound 1897] ([NMeL]I[NMeA][Aze][NMePhe(4-Me)][Sar][hPhe(3-Cl-4-CF3)][NMe4Pal]V[NMeI][NMeD]-NMe2; lactam N-11) belongs 9.9 nM. Regarding `CC[C@H](C)[C@@H]1NC(=O)[C@H](CC(C)C)N(C)C(=O)C[C@@H](C(=O)N(C)C)N(C)C(=O)[C@H]([C@@H](C)CC)N(C)C(=O)C2(CCCC2)NC(=O)[C@H](CCC(F)F)N(C)C(=O)[C@H](CCc2ccc(C(F)(F)F)c(Cl)c2)NC(=O)CN(C)C(=O)[C@H](Cc2ccc(C)cc2)N(C)C(=O)[C@@H]2CCN2C(=O)[C@H](C)N(C)C1=O` [Compound 1898] ([NMeL]I[NMeA][Aze][NMePhe(4-Me)][Sar][hPhe(3-Cl-4-CF3)][NMeNva(5,5-F2)][Ac5c][NMeI][NMeD]-NMe2; lactam N-11), the half-maximal inhibitory concentration (IC50) was 0.93 nM.

Take `CC[C@H](C)[C@@H]1NC(=O)[C@H](CC(C)C)N(C)C(=O)C[C@@H](C(=O)N(C)C)N(C)C(=O)[C@H]([C@@H](C)CC)N(C)C(=O)C2(CCCC2)NC(=O)[C@H](Cc2ccc(OC(F)(F)F)cc2)N(C)C(=O)[C@H](CCc2ccc(C(F)(F)F)c(Cl)c2)NC(=O)CN(C)C(=O)[C@H](Cc2ccc(C)cc2)N(C)C(=O)[C@@H]2CCN2C(=O)[C@H](C)N(C)C1=O` [Compound 1902] ([NMeL]I[NMeA][Aze][NMePhe(4-Me)][Sar][hPhe(3-Cl-4-CF3)][NMeY](CF3)[Ac5c][NMeI][NMeD]-NMe2; lactam N-11): the concentration for half-maximal inhibition (IC50) worked out at 54 nM. To `CC[C@H](C)[C@@H]1NC(=O)[C@H](C)N(C)C(=O)C[C@@H](C(=O)N(C)C)N(C)C(=O)[C@H]([C@@H](C)CC)N(C)C(=O)C2(CCCC2)NC(=O)[C@H](Cc2ccc(OC)cc2)N(C)C(=O)[C@H](CCc2ccc(C(F)(F)F)c(Cl)c2)NC(=O)CN(C)C(=O)[C@H](Cc2ccc(C)cc2)N(C)C(=O)[C@@H]2CCN2C(=O)[C@H](C)N(C)C1=O` [Compound 1903] ([NMeA]I[NMeA][Aze][NMePhe(4-Me)][Sar][hPhe(3-Cl-4-CF3)][NMeY](Me)[Ac5c][NMeI][NMeD]-NMe2; lactam N-11) belongs 4 nM. The value for `CC[C@H](C)[C@@H]1NC(=O)[C@H](CC(C)C)N(C)C(=O)C[C@@H](C(=O)N(C)C)N(C)C(=O)[C@H]([C@@H](C)CC)N(C)C(=O)C2(CCCC2)NC(=O)[C@@H](Cc2ccccc2)N(C)C(=O)[C@H](CCc2ccc(C(F)(F)F)c(Cl)c2)NC(=O)CN(C)C(=O)[C@H](Cc2ccc(C)cc2)N(C)C(=O)[C@@H]2CCN2C(=O)[C@H](C)N(C)C1=O` [Compound 1909] ([NMeL]I[NMeA][Aze][NMePhe(4-Me)][Sar][hPhe(3-Cl-4-CF3)][dNMeF][Ac5c][NMeI][NMeD]-NMe2; lactam N-11) was 110 nM; that for `CC[C@H](C)[C@@H]1NC(=O)[C@H](CC(C)C)N(C)C(=O)C[C@@H](C(=O)N(C)C)N(C)C(=O)[C@H]([C@@H](C)CC)N(C)C(=O)C2(CCCC2)NC(=O)[C@H](Cc2cccc(I)c2)N(C)C(=O)[C@H](CCc2ccc(C(F)(F)F)c(Cl)c2)NC(=O)CN(C)C(=O)[C@H](Cc2ccc(C)cc2)N(C)C(=O)[C@@H]2CCN2C(=O)[C@H](C)N(C)C1=O` [Compound 1910] ([NMeL]I[NMeA][Aze][NMePhe(4-Me)][Sar][hPhe(3-Cl-4-CF3)][NMePhe(3-I)][Ac5c][NMeI][NMeD]-NMe2; lactam N-11) was 60 nM; that for `CC[C@H](C)[C@@H]1NC(=O)[C@H](CC(C)C)N(C)C(=O)C[C@H]2CCCCN2C(=O)[C@H]([C@@H](C)CC)N(C)C(=O)C2(CCCC2)NC(=O)[C@@H]2CCCN2C(=O)[C@H](CCc2ccc(C(F)(F)F)c(Cl)c2)NC(=O)CN(C)C(=O)[C@H](Cc2ccc(C)cc2)N(C)C(=O)[C@@H]2CCN2C(=O)[C@H](C)N(C)C1=O` [Compound 1912] (cyclo([Ac5c][NMeI][dβ3hPip][NMeL]I[NMeA][Aze][NMePhe(4-Me)][Sar][hPhe(3-Cl-4-CF3)]P)) was 27 nM. The value for `CC[C@H](C)[C@@H]1NC(=O)[C@H](C)N(C)C(=O)C[C@@H](C(=O)N(C)C)N(C)C(=O)[C@H]([C@@H](C)CC)N(C)C(=O)C2(CCCC2)NC(=O)[C@H](Cc2ccc(F)cc2)N(C)C(=O)[C@H](CCc2cc(F)c(C(F)(F)F)c(F)c2)NC(=O)CN(C)C(=O)[C@H](Cc2ccc(C)cc2)N(C)C(=O)[C@@H]2CCN2C(=O)[C@H](C)N(C)C1=O` [Compound 1914] ([NMeA]I[NMeA][Aze][NMePhe(4-Me)][Sar][hPhe(3,5-F2-4-CF3)][NMePhe(4-F)][Ac5c][NMeI][NMeD]-NMe2; lactam N-11) was 7.7 nM. For the molecule `CC[C@H](C)[C@@H]1NC(=O)[C@H](CC(C)C)N(C)C(=O)C[C@@H](CC(C)C)NC(=O)[C@H]([C@@H](C)CC)N(C)C(=O)C2(CCCC2)NC(=O)[C@@H]2CCCN2C(=O)[C@H](CCc2cc(F)c(C(F)(F)F)c(F)c2)NC(=O)CN(C)C(=O)[C@H](Cc2ccc(C(F)(F)F)cc2)N(C)C(=O)[C@@H]2CCN2C(=O)[C@H](C)N(C)C1=O` [Compound 1918] (cyclo([Ac5c][NMeI][d(β3hL)][NMeL]I[NMeA][Aze][NMePhe(4-CF3)][Sar][hPhe(3,5-F2-4-CF3)]P)), the concentration for half-maximal inhibition (IC50) was 280 nM. For the molecule `CC[C@H](C)[C@@H]1NC(=O)[C@H](C)N(C)C(=O)C[C@@H](C(=O)N(C)C)N(C)C(=O)[C@H]([C@@H](C)CC)N(C)C(=O)C2(CCCC2)NC(=O)[C@H](Cc2cccc(OC)c2)N(C)C(=O)[C@H](CCc2ccc(C(F)(F)F)c(Cl)c2)NC(=O)CN(C)C(=O)[C@H](Cc2ccc(C)cc2)N(C)C(=O)[C@@H]2CCN2C(=O)[C@H](C)N(C)C1=O` [Compound 1922] ([NMeA]I[NMeA][Aze][NMePhe(4-Me)][Sar][hPhe(3-Cl-4-CF3)][NMePhe(3-OMe)][Ac5c][NMeI][NMeD]-NMe2; lactam N-11), the half-inhibitory concentration (IC50) came out at 3.1 nM. To `CC[C@H](C)[C@@H]1NC(=O)[C@H](CC(C)C)N(C)C(=O)C[C@@H](C(=O)N(C)C)N(C)C(=O)[C@H]([C@@H](C)CC)N(C)C(=O)C2(CCCC2)NC(=O)[C@H](Cc2ccc(C#N)cc2)N(C)C(=O)[C@H](CCc2ccc(C(F)(F)F)c(Cl)c2)NC(=O)CN(C)C(=O)[C@H](Cc2ccc(C)cc2)N(C)C(=O)[C@@H]2CCN2C(=O)[C@H](C)N(C)C1=O` [Compound 1927] ([NMeL]I[NMeA][Aze][NMePhe(4-Me)][Sar][hPhe(3-Cl-4-CF3)][NMePhe(4-CN)][Ac5c][NMeI][NMeD]-NMe2; lactam N-11) belongs 3.3 nM.
